According to a melting point compilation (Tetko et al.):

SMILES | melting point
O=[N+]([O-])c1ccc(-c2cn3ccsc3n2)cc1 | 284 to 286 °C
O=C1C(=O)N(CN2CCN(CCO)CC2)c2ccccc21 | 157 to 159 °C
COc1ccccc1-c1nn(Cc2ccccc2)cc1C(=O)O | 152 to 154 °C
NCc1nnc2ccccn12 | 131 to 133 °C
Cc1nc2ccccc2n1Cc1cc(N)ccc1Cl | 191 to 193 °C
O=C1CN(CCOc2ccc(Br)cc2)CCN1 | 111 to 113 °C
O=C1Nc2c(Br)ccc(Br)c2C1=O | 271 to 273 °C
CNS(=O)(=O)C1CCNCC1 | 168 to 170 °C
O=C(O)CNC(=O)CCC1CCCC1 | 112 to 114 °C
O=C(CCl)NCC(F)(F)F | 51 to 53 °C
Nc1ccc(Oc2ccc(F)cc2)nc1 | 47 to 49 °C
Fc1cccc2[nH]c(C3CCNCC3)nc12 | 229 to 231 °C
OCc1cc(Cl)c2c(c1)OCO2 | 101 to 105 °C
Cc1ccc(S(=O)(=O)NCCN)s1 | 94 to 96 °C
NC(N=O)=C1NC=Cc2ccccc21 | 125 to 127 °C
Clc1ccc2c(Cl)ccc(Cl)c2n1 | 85 to 87 °C
Nc1ccc2[nH]c(-c3ccc(F)cc3)nc2c1 | 118 to 120 °C
CCC(NC(=O)OC(C)(C)C)(C(N)=O)C(C)C (stereo unspecified) | 157 to 159 °C
Cc1nnc(-c2cccc(N)c2)o1 | 136 to 138 °C

SMILES | melting point
O=C(O)CCC(=O)c1ccc2ccc3cccc4ccc1c2c34 | 184 to 186 °C
c1ccc(-c2noc(CSc3nnc(-c4ccncc4)o3)n2)cc1 | 134 to 136 °C
CC(C)NCCc1nc(-c2ccc(S(C)(=O)=O)cc2)c[nH]1 | 264 to 266 °C
O=c1ccc(Cl)n[nH]1 | 138 to 140 °C
O=Cc1cnc(N2CCCC2)nc1 | 118 to 120 °C
Brc1cccn2cnnc12 | 184 to 186 °C
CN1CCC(Nc2ccc3cn[nH]c3c2)CC1 | 165 to 167 °C
Cc1nc(-c2ccccc2Br)sc1C(C)O (stereo unspecified) | 79 to 81 °C
O=C(CCl)N1CCN(S(=O)(=O)c2ccc(Cl)s2)CC1 | 240 to 245 °C
COc1ccc(N)cc1S(=O)(=O)N(C)C | 144 to 146 °C
Cc1sc2ncnc(NN)c2c1C | 208 to 210 °C
O=C(O)C1CCN(C(=O)N2CCOCC2)CC1 | 131 to 133 °C
ClCc1sc2ccccc2c1Cl | 77 to 79 °C
OCc1cc(Cl)cc2c1OCC2 | 97 to 99 °C
Cc1nc(N)sc1Cc1ccccc1Cl | 126 to 128 °C
COC(=O)c1c(NC(=O)CCl)sc(C)c1C | 143 to 145 °C
COc1cc(C=O)cc(Cl)c1OC | 56 to 58 °C
OCc1sc2ccccc2c1Cl | 90 to 92 °C
CCOC=C1C(=O)N(c2ccccn2)C(=O)c2ccccc21 | 231 to 233 °C

Results, then the compound that gave them:

melting point | SMILES
189 to 191 °C | NC(=O)c1cccc(F)c1I
93 to 95 °C | O=C(c1ccc(F)cc1F)N1CCCNCC1
249 to 251 °C | Cc1cc(S(N)(=O)=O)sc1C(=O)O
144 to 146 °C | Cc1ccc(Nc2ncccc2N)cc1
144 to 146 °C | CC(C)n1ncc2ccc(N)cc21
255 to 257 °C | Cc1cc(C(=O)O)ccc1S(N)(=O)=O
198 to 200 °C | COc1cccc(C(N)C(=O)O)c1 (stereo unspecified)
220 to 222 °C | O=C(O)c1cccc(S(=O)(=O)NC2CCOC2=O)c1 (stereo unspecified)
161 to 163 °C | O=C(O)c1ccccc1Oc1ccc(Cl)cc1Cl
70 to 72 °C | Cc1cc(C)cc(OCCN(C)C(=O)CCl)c1
246 to 248 °C | O=C(O)C1CCN(C(=O)c2ccc3[nH]ncc3c2)CC1
221 to 223 °C | CNC(=O)c1cc2ccccc2[nH]1
157 to 159 °C | O=C(O)CCNC(=O)c1c[nH]c2ccccc12
218 to 220 °C | CSc1cc(C(=O)O)ccn1
142 to 144 °C | CCCc1noc2nc(C3CC3)cc(C(=O)O)c12
138 to 140 °C | Cc1cc(=O)[nH]cn1
179 to 181 °C | CC(C)CNS(=O)(=O)c1cc(C(=O)O)c(Cl)cc1Cl

melting point | SMILES
194 to 196 °C | O=C(O)c1nn(-c2ccccc2F)c2c1CCC2
57 to 59 °C | O=[N+]([O-])c1cc(S(=O)(=O)C(F)(F)F)ccc1Cl
169 to 171 °C | CC(NS(=O)(=O)c1cnn(C)c1)C(=O)O (stereo unspecified)
86 to 88 °C | COc1cc(C=O)ccc1OCc1csc(C)n1
184 to 186 °C | O=C(O)C1CC(=O)N(c2nccs2)C1 (stereo unspecified)
99 to 101 °C | O=Cc1cc(-c2ccccc2)ccc1O
344 to 346 °C | N#Cc1ccc2nc(N)ncc2c1
178 to 180 °C | CC(C)NC(=O)Nc1ccccc1C(=O)O
185 to 187 °C | O=C(O)C1CCCCN1C1=NS(=O)(=O)c2ccccc21 (stereo unspecified)
44 to 46 °C | COc1ccc(C=O)cc1SC
235 to 237 °C | O=C(O)c1cc(-c2ccccc2)nc2cccc(Br)c12
227 to 229 °C | CC(C)(C)Cc1nc(-c2ccc(C(=O)O)cc2)no1
189 to 191 °C | NC(=S)C1(NC(=O)c2ccccc2)CCCCC1
134 to 136 °C | CC(C)S(=O)(=O)Nc1ccc(S(N)(=O)=O)cc1F
83 to 85 °C | CCc1ccc(N)c(C(=O)OC)c1
157 to 159 °C | O=C(O)CSc1nncs1
